Measured values from patent publication US12187723B2 (BRISTOL-MYERS SQUIBB COMPANY, priority 2019, dated 2025).

Experiments:
human TLR8 = molecular target: T1, human TLR8 (Homo sapiens, UniProt Q9NR97); assay: TLR8 inhibition reporter assay (HEK-Blue SEAP); assay type: cell-based; settings: HEK-Blue cells overexpressing human TLR8, R848 15.9 μM, 22 hour incubation
T1 construct: host or cells: HEK-Blue cells
T1 sequence (Q9NR97 27-1041): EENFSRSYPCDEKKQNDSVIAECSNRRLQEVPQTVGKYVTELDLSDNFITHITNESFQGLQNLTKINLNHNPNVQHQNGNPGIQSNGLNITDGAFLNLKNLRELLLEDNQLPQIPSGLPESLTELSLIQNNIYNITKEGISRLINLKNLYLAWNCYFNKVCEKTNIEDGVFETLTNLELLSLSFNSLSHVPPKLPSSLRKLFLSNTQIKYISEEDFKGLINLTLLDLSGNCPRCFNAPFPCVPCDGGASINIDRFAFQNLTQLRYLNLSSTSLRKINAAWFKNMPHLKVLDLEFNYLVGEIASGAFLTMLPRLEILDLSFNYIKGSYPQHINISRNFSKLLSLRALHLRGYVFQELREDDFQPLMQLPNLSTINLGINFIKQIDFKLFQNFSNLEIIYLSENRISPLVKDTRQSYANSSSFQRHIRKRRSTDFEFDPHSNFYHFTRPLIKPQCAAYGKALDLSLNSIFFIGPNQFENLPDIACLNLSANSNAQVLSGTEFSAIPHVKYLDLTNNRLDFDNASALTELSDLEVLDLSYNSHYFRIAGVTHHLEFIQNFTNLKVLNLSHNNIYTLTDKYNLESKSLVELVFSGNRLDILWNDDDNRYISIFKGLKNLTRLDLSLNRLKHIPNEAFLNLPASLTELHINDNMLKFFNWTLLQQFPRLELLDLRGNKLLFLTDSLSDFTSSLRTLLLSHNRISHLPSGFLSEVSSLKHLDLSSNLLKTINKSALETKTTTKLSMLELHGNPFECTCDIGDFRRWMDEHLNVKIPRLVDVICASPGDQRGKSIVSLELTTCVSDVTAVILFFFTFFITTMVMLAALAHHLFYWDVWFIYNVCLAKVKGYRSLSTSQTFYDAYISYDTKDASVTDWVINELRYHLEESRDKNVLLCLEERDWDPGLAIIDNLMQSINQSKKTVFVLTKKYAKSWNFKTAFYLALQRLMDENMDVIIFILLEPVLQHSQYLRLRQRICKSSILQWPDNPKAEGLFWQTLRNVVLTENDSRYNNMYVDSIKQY
Summary of the method: (§1)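 Compound treatment: 30 min, RT, 0.05 nM–50 μM final. Agonist: TLR7 gardiquimod 7.5 μM; TLR8 R848 15.9 μM; TLR9 ODN2006 5 nM. Incubation 22 h, 37 °C, 5% CO2. Readout SEAP, HEK-Blue Detection.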

human TLR9 = molecular target: T2, human TLR9 (Homo sapiens, UniProt Q9NR96); assay: TLR9 inhibition reporter assay (HEK-Blue SEAP); assay type: cell-based; settings: HEK-Blue cells overexpressing human TLR9, ODN2006 5 nM, 22 hour incubation
T2 construct: host or cells: HEK-Blue cells
T2 sequence (Q9NR96 26-1032): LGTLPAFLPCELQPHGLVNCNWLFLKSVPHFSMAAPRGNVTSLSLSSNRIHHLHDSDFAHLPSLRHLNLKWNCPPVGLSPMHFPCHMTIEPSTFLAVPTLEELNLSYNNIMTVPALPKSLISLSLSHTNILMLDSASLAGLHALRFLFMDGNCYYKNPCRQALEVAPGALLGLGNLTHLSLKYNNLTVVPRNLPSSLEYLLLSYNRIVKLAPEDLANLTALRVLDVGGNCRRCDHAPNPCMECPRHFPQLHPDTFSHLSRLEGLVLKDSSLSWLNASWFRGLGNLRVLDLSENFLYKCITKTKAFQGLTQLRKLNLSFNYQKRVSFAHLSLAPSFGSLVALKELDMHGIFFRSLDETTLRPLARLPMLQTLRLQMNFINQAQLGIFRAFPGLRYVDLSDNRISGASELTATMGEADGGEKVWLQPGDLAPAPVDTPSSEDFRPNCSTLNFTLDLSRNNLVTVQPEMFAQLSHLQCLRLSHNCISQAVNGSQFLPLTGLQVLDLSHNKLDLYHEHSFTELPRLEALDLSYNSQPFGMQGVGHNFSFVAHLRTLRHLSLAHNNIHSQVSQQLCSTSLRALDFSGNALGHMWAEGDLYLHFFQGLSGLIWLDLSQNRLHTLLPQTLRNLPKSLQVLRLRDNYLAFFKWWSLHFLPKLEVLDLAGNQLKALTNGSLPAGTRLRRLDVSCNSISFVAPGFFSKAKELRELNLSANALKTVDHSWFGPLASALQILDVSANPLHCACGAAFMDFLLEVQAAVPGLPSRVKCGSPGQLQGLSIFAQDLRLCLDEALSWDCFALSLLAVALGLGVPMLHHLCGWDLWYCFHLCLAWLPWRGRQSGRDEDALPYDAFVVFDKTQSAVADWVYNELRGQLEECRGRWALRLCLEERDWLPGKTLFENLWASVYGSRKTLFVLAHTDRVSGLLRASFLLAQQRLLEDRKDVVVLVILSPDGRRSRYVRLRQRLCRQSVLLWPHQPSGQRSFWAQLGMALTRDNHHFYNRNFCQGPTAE
Summary of the method: as §1

## COc1c(C)c(-c2cc3[nH]c(=O)n(C4CCC(NCC5(S(C)(=O)=O)CC5)CC4)c3cc2C(C)C)cn2ncnc12 (single isomer, unassigned) [Example 260]
Human TLR8
  IC50: 0.38 nM
Human TLR9
  IC50: 6360 nM

## COc1cc(-c2ccc3c(c2)[nH]c(=O)n3C2CCNCC2)cn2ncnc12 [1 EI, 5-(8-methoxy-[1,2,4]triazolo[1,5-a]pyridin-6-yl)-1-(piperidin-4-yl)-1,3-dihydro-2H-benzo[d]imidazol-2-one]
Human TLR8
  IC50: > 3130 nM
Human TLR9
  IC50: 1180 nM

## Cc1c(-c2cc3[nH]c(=O)n(C4CCC(N5CC6(COC6)C5)CC4)c3cc2C(C)C)cn2ncnc2c1C (single isomer, unassigned) [Example 281, 1-(4-(2-oxa-6-azaspiro[3.3]heptan-6-yl)cyclohexyl)-5-(7,8-dimethyl-[1,2,4]triazolo[1,5-a]pyridin-6-yl)-6-isopropyl-1,3-dihydro-2H-benzo[d]imidazol-2-one]
Human TLR8
  IC50: 2.67 nM
Human TLR9
  IC50: 13100 nM

## COc1c(C)c(-c2cc3[nH]c(=O)n(C4CCC(N5CC(OC)C5)CC4)c3cc2C(C)C)cn2ncnc12 (stereo not drawn) [Example 265, 6-isopropyl-5-(8-methoxy-7-methyl-[1,2,4]triazolo[1,5-a]pyridin-6-yl)-1-(4-(3-methoxyazetidin-1-yl)cyclohexyl)-1,3-dihydro-2H-benzo[d]imidazol-2-one]
Human TLR8
  IC50: 2.72 nM
Human TLR9
  IC50: 19100 nM

## COc1cc(-c2cc3[nH]c(=O)n(C4CCC(N5CCC(OC)C5)CC4)c3cc2C(C)C)cn2ncnc12 (stereo not drawn) [Example 284, 6-isopropyl-5-(8-methoxy-[1,2,4]triazolo[1,5-a]pyridin-6-yl)-1-(4-(3-methoxypyrrolidin-1-yl)cyclohexyl)-1,3-dihydro-2H-benzo[d]imidazol-2-one]
Human TLR8
  IC50: 0.18 nM
Human TLR9
  IC50: 3560 nM

## Cc1c(-c2cc3[nH]c(=O)n(C4CCC(N5CCCOCC5)CC4)c3cc2C(C)C)cn2ncnc2c1C (stereo not drawn) [Example 271, 1-(4-(1,4-oxazepan-4-yl)cyclohexyl)-5-(7,8-dimethyl-[1,2,4]triazolo[1,5-a]pyridin-6-yl)-6-isopropyl-1,3-dihydro-2H-benzo[d]imidazol-2-one]
Human TLR8
  IC50: 0.36 nM
Human TLR9
  IC50: 8160 nM

## Cc1cc2c(cc1-c1cc(C)c3ncnn3c1)[nH]c(=O)n2[C@H]1CC[C@@H](NC2CCOCC2)CC1 [Example 30, 6-methyl-5-(8-methyl-[1,2,4]triazolo[1,5-a]pyridin-6-yl)-1-((1s,4s)-4-((tetrahydro-2H-pyran-4-yl)amino)cyclohexyl)-1,3-dihydro-2H-benzo[d]imidazol-2-one]
Human TLR8
  IC50: 3.12 nM
Human TLR9
  IC50: 4490 nM

## COc1cc(-c2cc3[nH]c(=O)n(C4CCC(N5CC[C@H](F)C5)CC4)c3cc2C(C)C)cn2ncnc12 (stereo partly drawn) [Example 287, (S)-1-(4-(3-fluoropyrrolidin-1-yl)cyclohexyl)-6-isopropyl-5-(8-methoxy-[1,2,4]triazolo[1,5-a]pyridin-6-yl)-1,3-dihydro-2H-benzo[d]imidazol-2-one]
Human TLR8
  IC50: 1.66 nM
Human TLR9
  IC50: 10900 nM

## Cc1c(-c2cc3[nH]c(=O)n(C4CCC(N5CCC(F)(F)CC5)CC4)c3cc2C(C)C)cn2ncnc2c1C (single isomer, unassigned) [Example 275, 1-(4-(4,4-difluoropiperidin-1-yl)cyclohexyl)-5-(7,8-dimethyl-[1,2,4]triazolo[1,5-a]pyridin-6-yl)-6-isopropyl-1,3-dihydro-2H-benzo[d]imidazol-2-one]
Human TLR8
  IC50: 0.81 nM
Human TLR9
  IC50: 19900 nM

## COc1cc(-c2cc3[nH]c(=O)n(C4CCC(N5CCC(F)(F)CC5)CC4)c3cc2C(C)C)cn2ncnc12 (single isomer, unassigned) [Example 247, 1-(4-(4,4-difluoropiperidin-1-yl)cyclohexyl)-6-isopropyl-5-(8-methoxy-[1,2,4]triazolo[1,5-a]pyridin-6-yl)-1,3-dihydro-2H-benzo[d]imidazol-2-one]
Human TLR8
  IC50: 0.7 nM
Human TLR9
  IC50: 14900 nM

## COc1c(C)c(-c2cc3[nH]c(=O)n(C4CCC(N5CC(F)C5)CC4)c3cc2C(C)C)cn2ncnc12 (single isomer, unassigned) [Example 263, 1-(4-(3-fluoroazetidin-1-yl)cyclohexyl)-6-isopropyl-5-(8-methoxy-7-methyl-[1,2,4]triazolo[1,5-a]pyridin-6-yl)-1,3-dihydro-2H-benzo[d]imidazol-2-one]
Human TLR8
  IC50: 2.91 nM
Human TLR9
  IC50: 19700 nM

## Cc1cc2c(cc1-c1cc(C)c3ncnn3c1)[nH]c(=O)n2[C@@H]1CCCN(C2COC2)C1 [Example 18, (R)-6-methyl-5-(8-methyl-[1,2,4]triazolo[1,5-a]pyridin-6-yl)-1-(1-(oxetan-3-yl)piperidin-3-yl)-1,3-dihydro-2H-benzo[d]imidazol-2-one]
Human TLR8
  IC50: 80.8 nM
Human TLR9
  IC50: > 50000 nM

## Cc1c(-c2cc3[nH]c(=O)n(C4CCC(N5CC(F)C5)CC4)c3cc2C(C)C)cn2ncnc2c1C (stereo not drawn) [Example 279, 5-(7,8-dimethyl-[1,2,4]triazolo[1,5-a]pyridin-6-yl)-1-(4-(3-fluoroazetidin-1-yl)cyclohexyl)-6-isopropyl-1,3-dihydro-2H-benzo[d]imidazol-2-one]
Human TLR8
  IC50: 1.52 nM
Human TLR9
  IC50: 10800 nM

## COC1CN(C2CCC(n3c(=O)[nH]c4cc(-c5cn6ncnc6c(C)c5C)c(C(C)C)cc43)CC2)C1 (single isomer, unassigned) [Example 278, 5-(7,8-dimethyl-[1,2,4]triazolo[1,5-a]pyridin-6-yl)-6-isopropyl-1-(4-(3-methoxyazetidin-1-yl)cyclohexyl)-1,3-dihydro-2H-benzo[d]imidazol-2-one]
Human TLR8
  IC50: 1.57 nM
Human TLR9
  IC50: 15200 nM

## COc1c(C)c(-c2cc3[nH]c(=O)n(C4CCC(N5CC(F)C5)CC4)c3cc2C(C)C)cn2ncnc12 (single isomer, unassigned) [Example 264, 1-(4-(3-fluoroazetidin-1-yl)cyclohexyl)-6-isopropyl-5-(8-methoxy-7-methyl-[1,2,4]triazolo[1,5-a]pyridin-6-yl)-1,3-dihydro-2H-benzo[d]imidazol-2-one]
Human TLR8
  IC50: 5.93 nM
Human TLR9
  IC50: 17500 nM

## Cc1cc2c(cc1-c1cc(C)c3ncnn3c1)[nH]c(=O)n2[C@H]1CC[C@@H](N(C)C)CC1 [Example 19, 1-((1s,4s)-4-(dimethylamino)cyclohexyl)-6-methyl-5-(8-methyl-[1,2,4]triazolo[1,5-a]pyridin-6-yl)-1,3-dihydro-2H-benzo[d]imidazol-2-one]
Human TLR8
  IC50: 32 nM
Human TLR9
  IC50: 16400 nM

## COC[C@@H]1CCN(C2CCC(n3c(=O)[nH]c4cc(-c5cc(OC)c6ncnn6c5)c(C(C)C)cc43)CC2)C1 (single isomer, unassigned) [Example 291]
Human TLR8
  IC50: 1.86 nM
Human TLR9
  IC50: 12300 nM

## Cc1c(-c2cc3[nH]c(=O)n(C4CCC(N5CC6(COC6)C5)CC4)c3cc2C(C)C)cn2ncnc2c1C (single isomer, unassigned) [Example 298]
Human TLR8
  IC50: 3.76 nM
Human TLR9
  IC50: 3790 nM
